# Patent US20220257592A1, “METHODS OF TREATING CANCER” (HOFFMANN-LA ROCHE INC., priority 2019, published 2022)
# Assay: Clinical trial safety, ALKA, STARTRK-1, STARTRK-2, STARTRK-NG (interim, N=355)
# Settings: for Balance disorder / Confusional state / Dizziness / Headache / Paresthesia: CNS metastases
# [1] = no prior CNS irradiation (N=48)
# [2] = among the 32 patients with hyperuricemic adverse reactions
# [3] = among the 36 patients with mood disorders
# [4] = among the 51 patients with sleep disturbances
# [5] = among the 96 patients with cognitive impairment
# [6] = among the 136 patients who experienced dizziness
# [7] = clinically relevant adverse reactions in ≤10% of patients
structure (smiles),measurement,setting,value
"CN1CCN(c2ccc(C(=O)Nc3n[nH]c4ccc(Cc5cc(F)cc(F)c5)cc34)c(NC3CCOCC3)c2)CC1 [Entrectinib, N-[5-(3,5-difluorobenzyl)-1H-indazol-3-yl]-4-(4-methyl-piperazin-1-yl)-2-(tetrahydro-pyran-4-ylamino)-benzamide]","CHF, median time to onset","12 patients with CHF, range: 11 days to 12 months",2 months
same,Congestive heart failure,355 patients,3.4%
same,"Congestive heart failure, Grade 3",355 patients,2.3%
same,"Hyperuricemia reported as adverse reactions with symptoms, as well as elevated uric acid levels",355 patients,9%
same,Increased ALT of any grade,355 patients,36%
same,Increased AST of any grade,355 patients,42%
same,Balance disorder,[1],4%
same,Confusional state,[1],2%
same,Dizziness,[1],31%
same,Headache,[1],13%
same,Paresthesia,[1],6%
same,Balance disorder,prior CNS irradiation (N=90),13%
same,Confusional state,prior CNS irradiation (N=90),11%
same,Dizziness,prior CNS irradiation (N=90),38%
same,Headache,prior CNS irradiation (N=90),21%
same,Paresthesia,prior CNS irradiation (N=90),20%
same,"Abdominal pain, All Grades",N = 355,16%
same,"Arthralgia, All Grades",N = 355,21%
same,"Ataxia, All Grades",N = 355,17%
same,"Back pain, All Grades",N = 355,12%
same,"Cognitive impairment, All Grades",N = 355,27%
same,"Constipation, All Grades",N = 355,46%
same,"Cough, All Grades",N = 355,24%
same,"Decreased appetite, All Grades",N = 355,13%
same,"Dehydration, All Grades",N = 355,10%
same,"Diarrhea, All Grades",N = 355,35%
same,"Dizziness, All Grades",N = 355,38%
same,"Dysesthesia, All Grades",N = 355,34%
same,"Dysgeusia, All Grades",N = 355,44%
same,"Dyspnea, All Grades",N = 355,30%
same,"Edema, All Grades",N = 355,40%
same,"Fatigue, All Grades",N = 355,48%
same,"Headache, All Grades",N = 355,18%
same,"Hypotension, All Grades",N = 355,18%
same,"Increased weight, All Grades",N = 355,25%
same,"Lung infection, All Grades",N = 355,10%
same,"Mood disorders, All Grades",N = 355,10%
same,"Muscular weakness, All Grades",N = 355,12%
same,"Myalgia, All Grades",N = 355,28%
same,"Nausea, All Grades",N = 355,34%
same,"Pain in extremity, All Grades",N = 355,11%
same,"Peripheral sensory neuropathy, All Grades",N = 355,18%
same,"Pyrexia, All Grades",N = 355,21%
same,"Rash, All Grades",N = 355,11%
same,"Sleep (sleep disturbances), All Grades",N = 355,14%
same,"Urinary tract infection, All Grades",N = 355,13%
same,"Vision disorders, All Grades",N = 355,21%
same,"Vomiting, All Grades",N = 355,24%
same,"Abdominal pain, Grade ≥3","N = 355, Grades 3-5",0.6%
same,"Arthralgia, Grade ≥3","N = 355, Grades 3-5",0.6%
same,"Ataxia, Grade ≥3","N = 355, Grades 3-5",0.8%
same,"Back pain, Grade ≥3","N = 355, Grades 3-5",1%
same,"Cognitive impairment, Grade ≥3","N = 355, Grades 3-5",4.5%
same,"Constipation, Grade ≥3","N = 355, Grades 3-5",0.6%
same,"Cough, Grade ≥3","N = 355, Grades 3-5",0.3%
same,"Decreased appetite, Grade ≥3","N = 355, Grades 3-5",0.3%
same,"Dehydration, Grade ≥3","N = 355, Grades 3-5",1.1%
same,"Diarrhea, Grade ≥3","N = 355, Grades 3-5",2.0%
same,"Dizziness, Grade ≥3","N = 355, Grades 3-5",0.8%
same,"Dysesthesia, Grade ≥3","N = 355, Grades 3-5",0.3%
same,"Dysgeusia, Grade ≥3","N = 355, Grades 3-5",0.3%
same,"Edema, Grade ≥3","N = 355, Grades 3-5",1.1%
same,"Fatigue, Grade ≥3","N = 355, Grades 3-5",5%
same,"Headache, Grade ≥3","N = 355, Grades 3-5",0.3%
same,"Hypotension, Grade ≥3","N = 355, Grades 3-5",2.8%
same,"Increased weight, Grade ≥3","N = 355, Grades 3-5",7%
same,"Mood disorders, Grade ≥3","N = 355, Grades 3-5",0.6%
same,"Muscular weakness, Grade ≥3","N = 355, Grades 3-5",0.8%
same,"Myalgia, Grade ≥3","N = 355, Grades 3-5",1.1%
same,"Nausea, Grade ≥3","N = 355, Grades 3-5",0.3%
same,"Pain in extremity, Grade ≥3","N = 355, Grades 3-5",0.3%
same,"Peripheral sensory neuropathy, Grade ≥3","N = 355, Grades 3-5",1.1%
same,"Pyrexia, Grade ≥3","N = 355, Grades 3-5",0.8%
same,"Rash, Grade ≥3","N = 355, Grades 3-5",0.8%
same,"Sleep (sleep disturbances), Grade ≥3","N = 355, Grades 3-5",0.6%
same,"Urinary tract infection, Grade ≥3","N = 355, Grades 3-5",2.3%
same,"Vision disorders, Grade ≥3","N = 355, Grades 3-5",0.8%
same,"Vomiting, Grade ≥3","N = 355, Grades 3-5",0.8%
same,CHF resolved following interruption or discontinuation and medical management,among the 12 patients with CHF,50%
same,entrectinib discontinued due to CHF,among the 12 patients with CHF,17%
same,entrectinib interrupted due to CHF,among the 12 patients with CHF,50%
same,Dose interruption due to hyperuricemia,[2],6%
same,Dose reduction due to hyperuricemia,[2],6%
same,Required urate-lowering medication,[2],34%
same,Discontinuation due to mood disorders,[3],no patients discontinued
same,Dose interruption due to mood disorders,[3],6%
same,Dose reduction due to mood disorders,[3],6%
same,Discontinuation due to sleep disturbances,[4],no patients discontinued
same,Dose reduction due to sleep disturbances,[4],6%
same,Discontinued entrectinib due to cognitive adverse reactions,[5],1%
same,Dose interruption due to cognitive adverse reactions,[5],18%
same,Dose reduction due to cognitive adverse reactions,[5],13%
same,Discontinued entrectinib due to dizziness,[6],0.7%
same,Dose interruption due to dizziness,[6],7%
same,Dose reduction due to dizziness,[6],Ten
same,Grade 3 dizziness,[6],2.2%
same,Dysphagia,[7],10%
same,Fall,[7],8%
same,Fractures,[7],6%
same,Hypoxia,[7],4.2%
same,Pleural effusion,[7],8%
same,Pulmonary embolism,[7],3.9%
same,QT prolongation,[7],3.1%
same,Syncope,[7],3.9%
same,Increased AST or ALT leading to dose interruptions,first value of 'respectively',0.8%
same,Cognitive impairment: amnesia,"human, in vivo",2.5%
same,Cognitive impairment: aphasia,"human, in vivo",2.3%
same,Cognitive impairment: cognitive disorders,"human, in vivo",8%
same,Cognitive impairment: confusional state,"human, in vivo",7%
same,Cognitive impairment: delirium,"human, in vivo",0.8%
same,Cognitive impairment: disturbance in attention,"human, in vivo",4.8%
same,Cognitive impairment: hallucinations,"human, in vivo",1.1%
same,Cognitive impairment: memory impairment,"human, in vivo",3.7%
